According to patent publication US9938258B2 (Karyopharm Therapeutics Inc., priority 2012, dated 2018):

Tests used:
3T3 cells = assay: MTT cell proliferation assay, 3T3; format: cell-based, mouse; conditions: Mus musculus, NIH3T3, 3T3 cells, approximately 64-72 hours incubation; read-out: MTT Assay IC50, 3T3
Method in brief: (§1)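 Read-out: MTT reduction to formazan, solubilised and measured at 490 nm after ~4 h with MTT; inhibition (%) = (1-(ODo/OD))×100 relative to negative control. Seeding was 5,000-10,000 cells/well with overnight attachment. Eight test concentrations spanned 1 nM-30 μM; mostly duplicate, mean ± SE.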

Z138 cells = assay: MTT cell proliferation assay, Z138; format: cell-based; conditions: Homo sapiens, Z-138, Z138 cells, approximately 64-72 hours incubation; read-out: MTT Assay IC50, Z138
Method in brief: as §1

MS751 cells = assay: MTT cell proliferation assay, MS751; format: cell-based, human; conditions: Homo sapiens, MS751, MS751 cells, approximately 64-72 hours incubation; read-out: MTT Assay IC50, MS751
Method in brief: as §1

| SMILES | IC50 (3T3 cells) [µM] | IC50 (Z138 cells) [µM] | IC50 (MS751 cells) [µM] |
| --- | --- | --- | --- |
| Nc1ccc(CNC(=O)/C=C/C2Cc3cc(-c4ccc(C(=O)N5CC(F)C5)cc4)cc(Cl)c3O2)cn1 (stereo not drawn) [Compound 361, (E)-N-((6-Aminopyridin-3-yl)methyl)-3-(7-chloro-5-(4-(3-fluoroazetidine-1-carbonyl)phenyl)-2,3-dihydrobenzofuran-2-yl)acrylamide] | 0.1 to 5 | 0.1 to 5 | 0.1 to 5 |
| CC1(C)CN(C(=O)c2ccc(-c3cc(Cl)c4c(c3)CC(/C=C/C(=O)NCc3ccc(N)nc3)O4)cc2)C1 (stereo not drawn) [Compound 362, (E)-N-((6-aminopyridin-3-yl)methyl)-3-(7-chloro-5-(4-(3,3-dimethylazetidine-1-carbonyl)phenyl)-2,3-dihydrobenzofuran-2-yl)acrylamide] | < 0.1 | > 30 | < 0.1 |
| Nc1ccc(CNC(=O)/C=C/C2Cc3cc(-c4ccc(S(=O)(=O)N5CC(F)(F)C5)cc4)cc(Cl)c3O2)cn1 (stereo not drawn) [Compound 363, (E)-N-((6-aminopyridin-3-yl)methyl)-3-(7-chloro-5-(4-(3,3-difluoroazetidin-1-ylsulfonyl)phenyl)-2,3-dihydrobenzofuran-2-yl)acrylamide] | 5 to 30 | > 30 | > 30 |
| Nc1ccc(CNC(=O)/C=C/C2Cc3c(-c4ccc(S(=O)(=O)N5CCOCC5)cc4)ccc(Cl)c3O2)cn1 (stereo not drawn) [Compound 364, (E)-N-((6-aminopyridin-3-yl)methyl)-3-(7-chloro-4-(4-(morpholinosulfonyl)phenyl)-2,3-dihydrobenzofuran-2-yl)acrylamide] | 5 to 30 | > 30 | 0.1 to 5 |
| [2H]C1([2H])c2cc(-c3ccc(C(=O)N4CCOCC4)cc3)cc(Cl)c2OC1CNC(=O)/C=C/c1ccc(N)nc1 (stereo not drawn) [Compound 365, (E)-3-(6-aminopyridin-3-yl)-N-((7-chloro-3,3-dideutero-5-(4-(morpholine-4-carbonyl)phenyl)-2,3-dihydrobenzofuran-2-yl)methyl)acrylamide] | < 0.1 | 0.1 to 5 | < 0.1 |
| CC1(F)CN(C(=O)c2ccc(-c3cc(Cl)c4c(c3)CC(/C=C/C(=O)NCc3ccc(N)nc3)O4)cc2)C1 (stereo not drawn) [Compound 366, (E)-N-((6-aminopyridin-3-yl)methyl)-3-(7-chloro-5-(4-(3-fluoro-3-methylazetidine-1-carbonyl)phenyl)-2,3-dihydrobenzofuran-2-yl)acrylamide] | 0.1 to 5 | > 30 | > 30 |
| CC1(C)COCCN1C(=O)c1ccc(-c2cc(Cl)c3c(c2)CC(/C=C/C(=O)NCc2ccc(N)nc2)O3)cc1 (stereo not drawn) [Compound 367, (E)-N-((6-aminopyridin-3-yl)methyl)-3-(7-chloro-5-(4-(3,3-dimethylmorpholine-4-carbonyl)phenyl)-2,3-dihydrobenzofuran-2-yl)acrylamide] | 0.1 to 5 | < 0.1 | < 0.1 |
| CC1(C)COCCN1C(=O)c1ccc(-c2cc(Cl)c3c(c2)CC(/C=C/C(=O)NCc2ccc(N)nc2)O3)nc1 (stereo not drawn) [Compound 368, (E)-N-((6-aminopyridin-3-yl)methyl)-3-(7-chloro-5-(5-(3,3-dimethylmorpholine-4-carbonyl)pyridin-2-yl)-2,3-dihydrobenzofuran-2-yl)acrylamide] | 0.1 to 5 | < 0.1 | < 0.1 |
| CC(=O)c1ccc(-c2cc(Cl)c3c(c2)CC(CNC(=O)CCc2cnc(N)c(Br)c2)O3)s1 (stereo not drawn) [Compound 371, N-((5-(5-acetylthiophen-2-yl)-7-chloro-2,3-dihydrobenzofuran-2-yl)methyl)-3-(6-amino-5-bromopyridin-3-yl)propanamide] | > 30 | 5 to 30 | 5 to 30 |
| Nc1ccc(/C=C/C(=O)NCC2Cc3cc(-c4ccc(C(=O)N5CCOCC5)c(F)c4F)cc(Cl)c3O2)cn1 (stereo not drawn) [Compound 901, (E)-3-(6-aminopyridin-3-yl)-N-((7-chloro-5-(2,3-difluoro-4-(morpholine-4-carbonyl)phenyl)-2,3-dihydrobenzofuran-2-yl)methyl)acrylamide] | 0.1 to 5 | < 0.1 | < 0.1 |
| Nc1ccc(/C=C/C(=O)NCC2Cc3cc(-c4c(F)cc(C(=O)N5CCOCC5)cc4F)cc(Cl)c3O2)cn1 (stereo not drawn) [Compound 902, (E)-3-(6-aminopyridin-3-yl)-N-((7-chloro-5-(2,6-difluoro-4-(morpholine-4-carbonyl)phenyl)-2,3-dihydrobenzofuran-2-yl)methyl)acrylamide] | 0.1 to 5 | < 0.1 | < 0.1 |
| Nc1ccc(/C=C/C(=O)NCC2Cc3cc(-c4ccc(C(=O)N5CCOCC5)c(F)c4)cc(Cl)c3O2)cn1 (stereo not drawn) [Compound 903, (E)-3-(6-aminopyridin-3-yl)-N-((7-chloro-5-(3-fluoro-4-(morpholine-4-carbonyl)phenyl)-2,3-dihydrobenzofuran-2-yl)methyl)acrylamide] | 0.1 to 5 | < 0.1 | < 0.1 |
| Nc1ccc(/C=C/C(=O)NCC2Cc3cc(-c4ccc(C(=O)NNc5cnccn5)cc4)cc(Cl)c3O2)cn1 (stereo not drawn) [Compound 904, (E)-3-(6-aminopyridin-3-yl)-N-((7-chloro-5-(4-(2-(pyrazin-2-yl) hydrazine-1-carbonyl)phenyl)-2,3-dihydrobenzofuran-2-yl)methyl)acrylamide] | 0.1 to 5 | < 0.1 | < 0.1 |
| Nc1ccc(/C=C/C(=O)NCC2Cc3cc(-c4ccc(C(=O)CN5CCOCC5)cc4)cc(Cl)c3O2)cn1 (stereo not drawn) [Compound 906, (E)-3-(6-Aminopyridin-3-yl)-N-((7-chloro-5-(4-(2-morpholinoacetyl)phenyl)-2,3-dihydrobenzofuran-2-yl)methyl)acrylamide] | 0.1 to 5 | < 0.1 | < 0.1 |
| Nc1ccc(/C=C/C(=O)NCC2Cc3c(-c4cc(F)c(C(=O)N5CCOCC5)c(F)c4)ccc(Cl)c3O2)cn1 (stereo not drawn) [Compound 908, (E)-3-(6-Aminopyridin-3-yl)-N-((7-chloro-4-(3,5-difluoro-4-(morpholine-4-carbonyl)phenyl)-2,3-dihydrobenzofuran-2-yl)methyl)acrylamide] | 0.1 to 5 | < 0.1 | < 0.1 |
| Nc1ccc(/C=C/C(=O)NCC2Cc3cc(-c4ccc(C(=O)C(=O)N5CCOCC5)cc4)cc(Cl)c3O2)cn1 (stereo not drawn) [Compound 909, (E)-3-(6-aminopyridin-3-yl)-N-((7-chloro-5-(4-(2-morpholino-2-oxoacetyl)phenyl)-2,3-dihydrobenzofuran-2-yl)methyl)acrylamide] | 0.1 to 5 | < 0.1 | < 0.1 |
| Nc1ccc(/C=C/C(=O)NCC2Cc3c(-c4ccc(C(=O)N5CCOCC5)nc4)ccc(Cl)c3O2)cn1 (stereo not drawn) [Compound 910, (E)-3-(6-aminopyridin-3-yl)-N-((7-chloro-4-(6-(morpholine-4-carbonyl)pyridin-3-yl)-2,3-dihydrobenzofuran-2-yl)methyl)acrylamide] | 5 to 30 | < 0.1 | 0.1 to 5 |
| Nc1ccc(/C=C/C(=O)NCC2Cc3c(-c4ccc(C(=O)N5CCOCC5)cc4F)ccc(Cl)c3O2)cn1 (stereo not drawn) [Compound 911, (E)-3-(6-aminopyridin-3-yl)-N-((7-chloro-4-(2-fluoro-4-(morpholine-4-carbonyl)phenyl)-2,3-dihydrobenzofuran-2-yl)methyl)acrylamide] | 0.1 to 5 | < 0.1 | < 0.1 |
| Nc1ccc(/C=C/C(=O)NCC2Cc3c(-c4ccc(C(=O)N5CCOCC5)cn4)ccc(Cl)c3O2)cn1 (stereo not drawn) [Compound 912, (E)-3-(6-aminopyridin-3-yl)-N-((7-chloro-4-(5-(morpholine-4-carbonyl)pyridin-2-yl)-2,3-dihydrobenzofuran-2-yl)methyl)acrylamide] | 0.1 to 5 | < 0.1 | 0.1 to 5 |
| Nc1ccc(/C=C/C(=O)NCC2Cc3c(-c4cncc(C(=O)N5CCOCC5)c4)ccc(Cl)c3O2)cn1 (stereo not drawn) [Compound 913, (E)-3-(6-aminopyridin-3-yl)-N-((7-chloro-4-(5-(morpholine-4-carbonyl)pyridin-3-yl)-2,3-dihydrobenzofuran-2-yl)methyl)acrylamide] | 5 to 30 | 0.1 to 5 | 0.1 to 5 |
| Nc1ccc(/C=C/C(=O)NCC2Cc3cc(-c4ccc(S(=O)(=O)N5CCOCC5)cc4)cc(Cl)c3O2)cn1 (stereo not drawn) [Compound 914, (E)-3-(6-aminopyridin-3-yl)-N-((7-chloro-5-(4-(morpholinosulfonyl)phenyl)-2,3-dihydrobenzofuran-2-yl)methyl)acrylamide] | 0.1 to 5 | < 0.1 | < 0.1 |
| Nc1ccc(/C=C/C(=O)NCC2Cc3c(-c4cccc(C(=O)N5CCOCC5)c4)ccc(Cl)c3O2)cn1 (stereo not drawn) [Compound 915, (E)-3-(6-aminopyridin-3-yl)-N-((7-chloro-4-(3-(morpholine-4-carbonyl)phenyl)-2,3-dihydrobenzofuran-2-yl)methyl)acrylamide] | 0.1 to 5 | < 0.1 | < 0.1 |
| Nc1ccc(CCC(=O)NCC2Cc3cc(-c4ccc(C(=O)N5CCNCC5)cc4)cc(Cl)c3O2)cn1 (stereo not drawn) [Compound 920, 3-(6-aminopyridin-3-yl)-N-((7-chloro-5-(4-(piperazine-1-carbonyl)phenyl)-2,3-dihydrobenzofuran-2-yl)methyl)propanamide] | > 30 | > 30 | > 30 |
| Nc1ccc(/C=C/C(=O)NCC2Cc3cc(-c4ccc(CC(=O)N5CCOCC5)cc4)cc(Cl)c3O2)cn1 (stereo not drawn) [Compound 921, (E)-3-(6-aminopyridin-3-yl)-N-((7-chloro-5-(4-(2-morpholino-2-oxoethyl)phenyl)-2,3-dihydrobenzofuran-2-yl)methyl)acrylamide] | 0.1 to 5 | < 0.1 | < 0.1 |
